“And” between values parts separate entries of the source, which are not always exact repeats. Equal values may be shown once.
Tests used:
[1] = tested on: Rattus norvegicus; experiment: LC0; higher = less toxic; conditions: acute; inhalation
[2] = tested on: Rattus norvegicus; experiment: LD0; higher = less toxic; conditions: acute, oral, gavage
[3] = tested on: Rattus norvegicus
[4] = tested on: Mus musculus; conditions: oral, gavage
[5] = tested on: Oryctolagus sp.; conditions: for LD50: acute
[6] = tested on: Homo sapiens; conditions: clinical; oral; M/F; No significant adverse effects
[7] = tested on: Homo sapiens; conditions: clinical; oral; M/F; decreased erythrocyte cu, zn-superoxide dismutase (esod) activity in healthy adult male and female volunteers
[8] = tested on: Homo sapiens; conditions: clinical; duration: 10 weeks; oral; diet; Blood: Decreased blood enzyme
[9] = tested on: Homo sapiens; conditions: clinical, duration: 10 weeks, oral, F, hematological
[10] = tested on: Gallus sp.; conditions: acute; oral; gavage; White Leghorn
[11] = tested on: Canidae; conditions: chronic; duration: 4 months; oral; Beagle
[12] = tested on: Cavia porcellus; conditions: subchronic; duration: 3 months; inhalation; Guinea Pig
[13] = tested on: Monkey; conditions: subchronic; duration: 3 months; inhalation
[14] = tested on: Canidae; conditions: chronic; duration: 9 years; oral; capsule; F; Beagle; hepatic
[15] = tested on: Mus musculus; experiment: LD0; higher = less toxic; conditions: acute; oral
[16] = tested on: Canidae; conditions: chronic; duration: 9 years; oral; capsule; F; Beagle; hepatic; remark: listed apart in the source
[17] = tested on: Mus musculus; conditions: duration: 13 weeks, oral, M/F, CD1, Hepatotoxic lesions (males)
[18] = tested on: Megascops sp.; conditions: oral
[19] = tested on: Nycticorax nycticorax; conditions: oral
[20] = tested on: Anas platyrhynchos; conditions: oral
[21] = tested on: Rattus norvegicus; conditions: chronic, M/F, liver toxicity (fatty change)
[22] = tested on: Rattus norvegicus; conditions: repeat dose other; oral
[23] = tested on: Canidae; conditions: repeat dose other; oral; Dog Other
[24] = tested on: Rattus norvegicus; conditions: chronic; duration: 2 years; oral; drinking water; Liver: Lesions
[25] = tested on: Monkey; conditions: developmental; oral; M/F; reduced birth weight
[26] = tested on: Neovison sp.; conditions: repeat dose other; oral; Mink
[27] = tested on: Rattus norvegicus; experiment: LC50; conditions: acute; oral; gavage
[28] = subchronic, duration: 13 weeks, oral, gavage, F33/N
[29] = subchronic, duration: 13 weeks, B6C3F1
[30] = short-term, duration: 28 days, oral, diet, Sprague-Dawley
[31] = subchronic, duration: 90 days, oral, diet, Sprague-Dawley
[32] = reproduction developmental, duration: 12 days, oral, gavage, F, New Zealand

Structure (SMILES): S=C(SN1CCOCC1)N1CCOCC1 [4-((Morpholinothio)thioxomethyl)morpholine]
- LC0 [1]: 164 mg/L
- LD0 [2]: 1000 mg/kg
- LD0 ([2]; Sprague-Dawley): 2700 mg/kg
- LD50 ([3]; acute, oral, gavage): 5110 mg/kg
- LD50 ([3]; acute, oral, gavage, Sprague-Dawley): 5000 mg/kg and 5200 mg/kg
- NOAEL ([3]; reproduction developmental, duration: 12 weeks, oral, diet, Sprague-Dawley, generation: F0): 200 ppm
- NOAEL ([3]; reproduction developmental, duration: 12 weeks, oral, diet, Sprague-Dawley, generation: F1): 600 ppm
- NOAEL ([3]; reproduction developmental, oral, diet, Sprague-Dawley, generation: F0): 600 ppm
- LD50 ([4]; acute, CD1): 7000 mg/kg and 9000 mg/kg and 11000 mg/kg
- LD50 ([5]; dermal, semiocclusive): > 10000 mg/kg

Structure (SMILES): [Zn] [Zinc]
- NOAEL [6]: 220 mg/day and 600 mg/day
- LOAEL [7]: 0.91 mg/kg-day
- LOAEL [8]: 1 mg/kg-day
- NOAEL [9]: 0.83 mg/kg-day
- NOAEL ([9]; capsule): 0.83 mg/kg-day

Structure (SMILES): CC(C)(C)c1ccc(OP2OCC3(CO2)COP(Oc2ccc(C(C)(C)C)cc2C(C)(C)C)OC3)c(C(C)(C)C)c1 (configuration not stated) [Bis(2,4-di-tert-butylphenyl) pentaerythritol diphosphite]
- LC50 ([3]; acute, inhalation, Sprague-Dawley): > 2000 mg/m3
- LD50 ([3]; acute, oral, Sprague-Dawley): 5580 mg/kg
- NOAEL ([3]; chronic, duration: 24 months, oral, diet, Wistar): 39 mg/kg-day
- NOAEL ([3]; reproduction developmental, duration: 90 days, oral, diet, Crl:CD(SD), generation: F0): 1000 ppm
- NOAEL ([3]; reproduction developmental, duration: 90 days, oral, diet, M, Crl:CD(SD)): 22 mg/kg-day
- LD50 [10]: > 6080 mg/kg
- NOAEL [11]: 12 mg/kg-day
- LD50 ([5]; dermal, New Zealand): > 2000 mg/kg

Structure (SMILES): CCCCC(CC)COP(=O)(OCC(CC)CCCC)OCC(CC)CCCC (configuration not stated) [Tris(2-ethylhexyl) phosphate]
- LD50 ([3]; acute, inhalation): > 0.45 mg/L
- LOAEL [3, 28]: 2000 mg/kg-day
- NOAEL [3, 28]: 1000 mg/kg-day
- NOAEL ([3]; subchronic, duration: 30 days, oral, diet): 430 mg/kg-day
- LOAEL [12]: 9.6 mg/m3
- NOAEL [12]: 1.6 mg/m3
- LOAEL [4, 29]: 4000 mg/kg-day
- NOAEL [4, 29]: 2000 mg/kg-day
- NOAEL [13]: 85 mg/m3
- LD50 ([5]; dermal): 20000 mg/kg
- LD50 ([5]; injection, intravenous): > 358 mg/kg
- LD50 ([5]; intertracheal): > 1810 mg/kg

Structure (SMILES): Nc1ccc(Cc2ccc(N)c(Cl)c2)cc1Cl [4,4'-Methylenebis(2-chloroaniline)]
- LOAEL [14]: 7.3 mg/kg-day
- LD0 [15]: 640 mg/kg
- LD50 ([5]; dermal): > 5000 mg/kg
- LOAEL [16]: 10 mg/kg-day

Structure (SMILES): CC1CCc2cc(F)cc3c(=O)c(C(=O)O)cn1c23 (configuration not stated) [Flumequine]
- NOEL ([17]; feed): 25 mg/kg-day
- NOEL ([17]; subchronic, diet): 25 mg/kg-day

Structure (SMILES): C[Se]CCC(N)C(=O)O (configuration not stated) [Selenomethionine]
- LOAEL [18]: 1.5 mg/kg-day
- NOAEL [18]: 0.44 mg/kg-day
- NOAEL [19]: 1.8 mg/kg-day
- LOAEL [20]: 0.8 mg/kg-day
- NOAEL [20]: 0.4 mg/kg-day

Structure (SMILES): C=C(Cl)Cl [1,1-Dichloroethylene]
- LOAEL ([21]; inhalation): 297 mg/m3
- NOAEL ([21]; inhalation): 99.1 mg/m3
- LOAEL ([21]; oral, drinking water): 14 mg/kg-day
- NOAEL ([21]; oral, drinking water): 9 mg/kg-day
- NOAEL [22]: 30 mg/kg-day
- NOAEL [23]: 2.5 mg/kg-day
- LOAEL [24]: 9 mg/kg-day

Structure (SMILES): Clc1cccc(-c2cc(Cl)cc(Cl)c2)c1 [Aroclor 1016]
- LOAEL [25]: 0.028 mg/kg-day
- NOAEL [25]: 0.007 mg/kg-day
- LOAEL [26]: 3.43 mg/kg-day
- NOAEL [26]: 1.37 mg/kg-day

Structure (SMILES): O=C1c2c(Br)c(Br)c(Br)c(Br)c2C(=O)N1CCN1C(=O)c2c(Br)c(Br)c(Br)c(Br)c2C1=O [1,2-Bis(tetrabromophthalimido)ethane]
- NOAEL ([3]; developmental, duration: 10 days, oral, gavage, Sprague-Dawley): ≥ 1000 mg/kg-day
- NOAEL ([3]; reproduction developmental, duration: 10 days, oral, gavage, F, Sprague-Dawley): ≥ 1000 mg/kg-day
- LOAEL (% diet) [3, 30]: > 1
- NOAEL (% diet) [3, 30]: ≥ 1
- LOAEL [3, 31]: ≥ 1000 mg/kg-day
- NOAEL [3, 31]: ≥ 1000 mg/kg-day
- NOAEL (% diet) [3, 31]: 1
- LOAEL [5, 32]: < 1000 mg/kg-day
- NOAEL [5, 32]: ≥ 1000 mg/kg-day
- LD50 [27]: > 7500 mg/kg

From EPA's ToxValDB 9.5
